Earlier results as cited in patent US20180117080A1, “COMPOSITIONS AND METHODS FOR TREATING SKIN CONDITIONS” (priority 2015, published 2018).

## [Cl-].[K+] [KCl, Potassium Chloride]
  g/L Water Solubility 20c: 344 g/L
